# Experiment: In vitro metabolic stability in rat hepatocytes (including calculation of hepatic in vivo blood clearance)
# Assay type: in vitro ADME
# Settings: Han Wistar, hepatocytes (freshly isolated, suspension), read-out: CL (hepatic in vivo blood clearance) (converted)
# Description: Investigation of In Vitro Metabolic Stability in Rat Hepatocytes (Including Calculation of Hepatic In Vivo Blood Clearance (CL))
# Hepatocytes from Han Wistar rats were isolated via a 2-step perfusion method. After perfusion, the liver was carefully removed from the rat: the liver capsule was opened and the hepatocytes were gently shaken out into a Petri dish with ice-cold WME. The resulting cell suspension was filtered through sterile gaze in 50 ml falcon tubes and centrifuged at 50×g for 3 min at room temperature. The cell pellet was resuspended in 30 ml WME and centrifuged through a Percoll® gradient for 2 times at 100×g. The hepatocytes were washed again with Williams' medium E (WME) and resuspended in medium containing 5% FCS. Cell viability was determined by trypan blue exclusion.
# For the metabolic stability assay liver cells were distributed in WME containing 5% FCS to glass vials at a density of 1.0×10^6 vital cells/ml. The test compound was added to a final concentration of 1 μM. During incubation, the hepatocyte suspensions were continuously shaken and aliquots were taken at 2, 8, 16, 30, 45 and 90 min, to which equal volumes of cold methanol were immediately added.
# Samples were frozen at −20° C. over night, after subsequently centrifuged for 15 minutes at 3000 rpm and the supernatant was analyzed with an Agilent 1200 HPLC-system with LCMS/MS detection.
# The half-life of a test compound was determined from the concentration-time plot. From the half-life the intrinsic clearances were calculated. Together with the additional parameters liver blood flow, amount of liver cells in vivo and in vitro. The hepatic in vivo blood clearance (CL) and the maximal oral bioavailability (Fmax) was calculated. The following parameter values were used: Liver blood flow—4.2 L/h/kg rat; specific liver weight—32 g/kg rat body weight; liver cells in vivo—1.1×10^8 cells/g liver, liver cells in vitro—0.5×10^6 ml.
row,Compound,CLhep predicted at 1 μM [mL/min/kg]
1,"Cc1cc(-c2cnc3c(NCCC(F)(F)F)cc(C(O)c4cccc(F)c4O)nn23)ccc1C(=O)NC1CC1 (racemic) [Example 3, (RS)—N-Cyclopropyl-4-{6-[(3-fluoro-2-hydroxyphenyl)(hydroxy)methyl]-8-[(3,3,3-trifluoropropyl)amino]imidazo[1,2-b]pyridazin-3-yl}-2-methylbenzamide]",56.7
2,"Cc1cc(-c2cnc3c(NCCC(F)(F)F)cc(C(C)(O)c4cccc(F)c4O)nn23)ccc1C(=O)NC1CC1 (racemic) [Example 4, (RS)—N-Cyclopropyl-4-{6-[1-(3-fluoro-2-hydroxyphenyl)-1-hydroxyethyl]-8-[(3,3,3-trifluoropropyl)amino]imidazo[1,2-b]pyridazin-3-yl}-2-methylbenzamide]",45
3,"Cc1cc(-c2cnc3c(NCCC(F)(F)F)cc(C(F)c4cccc(F)c4)nn23)ccc1C(=O)NC1CC1 (racemic) [Example 5, (RS)—N-Cyclopropyl-4-{6-[fluoro(3-fluorophenyl)methyl]-8-[(3,3,3-trifluoropropyl)amino]imidazo[1,2-b]pyridazin-3-yl}-2-methylbenzamide]",35
4,"Cc1cc(-c2cnc3c(NCCC(F)(F)F)cc(C(O)c4cc(F)ccc4F)nn23)ccc1C(=O)NC1CC1 (racemic) [Example 11, (RS)—N-Cyclopropyl-4-{6-[(2,5-difluorophenyl)(hydroxy)methyl]-8-[(3,3,3-trifluoropropyl)amino]imidazo[1,2-b]pyridazin-3-yl}-2-methylbenzamide]",38.3
5,"COc1ccc(Cc2cc(NCCC(F)(F)F)c3ncc(-c4ccc(C(=O)NC5CC5)c(C)c4)n3n2)cc1F [Comparative Example 1, N-Cyclopropyl-4-{6-(3-fluoro-4-methoxybenzyl)-8-[(3,3,3-trifluoropropyl)amino]imidazo[1,2-b]pyridazin-3-yl}-2-methylbenzamide, reference compound]",50
6,"Cc1cc(-c2cnc3c(NCCC(F)(F)F)cc(Cc4cccc(F)c4O)nn23)ccc1C(=O)NC1CC1 [Comparative Example 2, N-Cyclopropyl-4-{6-(3-fluoro-2-hydroxybenzyl)-8-[(3,3,3-trifluoropropyl)amino]imidazo[1,2-b]pyridazin-3-yl}-2-methylbenzamide, reference compound]",68.3
7,"Cc1cc(-c2cnc3c(NCCC(F)(F)F)cc(Cc4cccc(F)c4)nn23)ccc1C(=O)NC1CC1 [Comparative Example 3, N-Cyclopropyl-4-{6-(3-fluorobenzyl)-8-[(3,3,3-trifluoropropyl)amino]imidazo[1,2-b]pyridazin-3-yl}-2-methylbenzamide, reference compound]",40
8,"COc1cccc(Cc2cc(NCCC(F)(F)F)c3ncc(-c4ccc(C(=O)NC5CC5)c(C)c4)n3n2)c1 [Comparative Example 4, N-cyclopropyl-4-{6-(3-methoxybenzyl)-8-[(3,3,3-trifluoropropyl)amino]imidazo[1,2-b]pyridazin-3-yl}-2-methylbenzamide, reference compound]",56.7
9,"COc1ccc(Cc2cc(NCCC(F)(F)F)c3ncc(-c4ccc(C(=O)NC5CC5)c(C)c4)n3n2)cc1 [Comparative Example 5, N-Cyclopropyl-4-{6-(4-methoxybenzyl)-8-[(3,3,3-trifluoropropyl)amino]imidazo[1,2-b]pyridazin-3-yl}-2-methylbenzamide, reference compound]",45
10,"C=C(c1ccc(OC)c(F)c1)c1cc(NCCC(F)(F)F)c2ncc(-c3ccc(C(=O)NC4CC4)c(C)c3)n2n1 [Example 1, N-Cyclopropyl-4-{6-[1-(3-fluoro-4-methoxyphenyl)ethenyl]-8-[(3,3,3-trifluoropropyl)amino]imidazo[1,2-b]pyridazin-3-yl}-2-methylbenzamide]",43.3
11,"COc1ccc(C(F)(F)c2cc(NCCC(F)(F)F)c3ncc(-c4ccc(C(=O)NC5CC5)c(C)c4)n3n2)cc1F [Example 2, N-Cyclopropyl-4-{6-[difluoro(3-fluoro-4-methoxyphenyl)methyl]-8-[(3,3,3-trifluoropropyl)amino]imidazo[1,2-b]pyridazin-3-yl}-2-methylbenzamide]",25
12,"COc1cccc(C(=O)c2cc(NCCC(F)(F)F)c3ncc(-c4ccc(C(=O)NC5CC5)c(C)c4)n3n2)c1 [Example 7, N-Cyclopropyl-4-{6-(3-methoxybenzoyl)-8-[(3,3,3-trifluoropropyl)amino]imidazo[1,2-b]pyridazin-3-yl}-2-methylbenzamide]",51.7
13,"C=C(c1cccc(OC)c1)c1cc(NCCC(F)(F)F)c2ncc(-c3ccc(C(=O)NC4CC4)c(C)c3)n2n1 [Example 8, N-Cyclopropyl-4-{6-[1-(3-methoxyphenyl)vinyl]-8-[(3,3,3-trifluoropropyl)amino]imidazo[1,2-b]pyridazin-3-yl}-2-methylbenzamide]",30
14,"COc1ccc(C(=O)c2cc(NCCC(F)(F)F)c3ncc(-c4ccc(C(=O)NC5CC5)c(C)c4)n3n2)cc1 [Example 9, N-Cyclopropyl-4-{6-(4-methoxybenzoyl)-8-[(3,3,3-trifluoropropyl)amino]imidazo[1,2-b]pyridazin-3-yl}-2-methylbenzamide]",20
15,"C=C(c1ccc(OC)cc1)c1cc(NCCC(F)(F)F)c2ncc(-c3ccc(C(=O)NC4CC4)c(C)c3)n2n1 [Example 10, N-Cyclopropyl-4-{6-[1-(4-methoxyphenyl)vinyl]-8-[(3,3,3-trifluoropropyl)amino]imidazo[1,2-b]pyridazin-3-yl}-2-methylbenzamide]",36.7
16,"Cc1cc(-c2cnc3c(NCCC(F)(F)F)cc(C(=O)c4cc(F)ccc4F)nn23)ccc1C(=O)NC1CC1 [Example 12, N-Cyclopropyl-4-{6-(2,5-difluorobenzoyl)-8-[(3,3,3-trifluoropropyl)amino]imidazo[1,2-b]pyridazin-3-yl}-2-methylbenzamide]",23.3
17,"COc1ccc(C(=O)c2cc(NCCC(F)(F)F)c3ncc(-c4ccc(C(=O)NC5CC5)c(C)c4)n3n2)cc1F [Example 13, N-Cyclopropyl-4-{6-(3-fluoro-4-methoxybenzoyl)-8-[(3,3,3-trifluoropropyl)amino]imidazo[1,2-b]pyridazin-3-yl}-2-methylbenzamide]",18.3
18,"Cc1cc(-c2cnc3c(NCCC(F)(F)F)cc(C(=O)c4cccc(F)c4F)nn23)ccc1C(=O)NC1CC1 [Example 14, N-Cyclopropyl-4-{6-(2,3-difluorobenzoyl)-8-[(3,3,3-trifluoropropyl)amino]imidazo[1,2-b]pyridazin-3-yl}-2-methylbenzamide]",35
19,"C=C(c1cc(NCCC(F)(F)F)c2ncc(-c3ccc(C(=O)NC4CC4)c(C)c3)n2n1)c1cccc(F)c1F [Example 15, N-Cyclopropyl-4-{6-[1-(2,3-difluorophenyl)vinyl]-8-[(3,3,3-trifluoropropyl)amino]imidazo[1,2-b]pyridazin-3-yl}-2-methylbenzamide]",33.3
20,"COc1ccc(C(F)(F)c2cc(NCCC(F)(F)F)c3ncc(-c4ccc(C(=O)NC5CC5)c(C)c4)n3n2)cc1 [Example 16, N-Cyclopropyl-4-{6-[difluoro(4-methoxyphenyl)methyl]-8-[(3,3,3-trifluoropropyl)amino]imidazo[1,2-b]pyridazin-3-yl}-2-methylbenzamide]",31.7
21,"Cc1cc(-c2cnc3c(NCCC(F)(F)F)cc(C4(c5cccc(F)c5F)CC4)nn23)ccc1C(=O)NC1CC1 [Example 17, N-Cyclopropyl-4-{6-[1-(2,3-difluorophenyl)cyclopropyl]-8-[(3,3,3-trifluoropropyl)amino]imidazo[1,2-b]pyridazin-3-yl}-2-methylbenzamide]",35
22,"Cc1cc(-c2cnc3c(NCCC(F)(F)F)cc(C(F)(F)c4cccc(F)c4F)nn23)ccc1C(=O)NC1CC1 [Example 18, N-Cyclopropyl-4-{6-[(2,3-difluorophenyl)(difluoro)methyl]-8-[(3,3,3-trifluoropropyl)amino]imidazo[1,2-b]pyridazin-3-yl}-2-methylbenzamide]",16.7
23,"C=C(c1cc(NCCC(F)(F)F)c2ncc(-c3ccc(C(=O)NC4CC4)c(C)c3)n2n1)c1cc(F)ccc1O [Example 22, N-cyclopropyl-4-{6-[1-(5-fluoro-2-hydroxyphenyl)ethenyl]-8-[(3,3,3-trifluoropropyl)amino]imidazo[1,2-b]pyridazin-3-yl}-2-methylbenzamide]",50
24,"Cc1cc(-c2cnc3c(NCCC(F)(F)F)cc(C4(c5cc(F)ccc5O)CC4)nn23)ccc1C(=O)NC1CC1 [Example 23, N-cyclopropyl-4-{6-[1-(5-fluoro-2-hydroxyphenyl)cyclopropyl]-8-[(3,3,3-trifluoropropyl)amino]imidazo[1,2-b]pyridazin-3-yl}-2-methylbenzamide]",41.7
25,"C=C(c1cccc(F)c1)c1cc(NCCC(F)(F)F)c2ncc(-c3ccc(C(=O)NC4CC4)c(C)c3)n2n1 [Example 24, N-cyclopropyl-4-{6-[1-(3-fluorophenyl)ethenyl]-8-[(3,3,3-trifluoropropyl)amino]imidazo[1,2-b]pyridazin-3-yl}-2-methylbenzamide]",36.7
